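Briefly, cells in 96-well plates were exposed to five compound concentrations for 48 h, and endpoints were estimated by linear interpolation. Abbreviation: GI50, concentration required for 50% inhibition of growth. TGI: total growth inhibition.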
Legend:
Assay in all cases: inhibition of tumour cell growth, NCI panel, 48 h
786-0 renal = tested on: 786-0 renal
A498 renal = tested on: A498 renal
A549 NSCLC = tested on: A549 NSCLC
ACHN renal = tested on: ACHN renal
BT-549 breast = tested on: BT-549 breast
CAKI-1 renal = tested on: CAKI-1 renal
CCRF-CEM leukemia = tested on: CCRF-CEM leukemia
COLO 205 colon = tested on: COLO 205 colon
DU-145 prostate = tested on: DU-145 prostate
EKVX NSCLC = tested on: EKVX NSCLC
HCC-2998 colon = tested on: HCC-2998 colon
HCT-116 colon = tested on: HCT-116 colon
HCT-15 colon = tested on: HCT-15 colon
HL-60(TB) leukemia = tested on: HL-60(TB) leukemia
HOP-62 NSCLC = tested on: HOP-62 NSCLC
HOP-92 NSCLC = tested on: HOP-92 NSCLC
HS 578T breast = tested on: HS 578T breast
HT29 colon = tested on: HT29 colon
IGROV1 ovarian = tested on: IGROV1 ovarian
K-562 leukemia = tested on: K-562 leukemia
KM12 colon = tested on: KM12 colon
LOX IMVI melanoma = tested on: LOX IMVI melanoma
M14 melanoma = tested on: M14 melanoma
MALME-3M melanoma = tested on: MALME-3M melanoma
MCF7 breast = tested on: MCF7 breast
MDA-MB-231 breast = tested on: MDA-MB-231 breast
MDA-MB-435 = tested on: MDA-MB-435
MDA-MB-468 breast = tested on: MDA-MB-468 breast
MOLT-4 leukemia = tested on: MOLT-4 leukemia
NCI-H226 lung = tested on: NCI-H226 lung
NCI-H23 lung = tested on: NCI-H23 lung
NCI-H460 lung = tested on: NCI-H460 lung
NCI-H522 lung = tested on: NCI-H522 lung
NCI/ADR-RES ovarian = tested on: NCI/ADR-RES ovarian
OVCAR-3 ovarian = tested on: OVCAR-3 ovarian
OVCAR-4 ovarian = tested on: OVCAR-4 ovarian
OVCAR-5 ovarian = tested on: OVCAR-5 ovarian
OVCAR-8 ovarian = tested on: OVCAR-8 ovarian
PC-3 prostate = tested on: PC-3 prostate
RPMI-8226 leukemia = tested on: RPMI-8226 leukemia
RXF 393 renal = tested on: RXF 393 renal
SF-268 CNS = tested on: SF-268 CNS
SF-295 CNS = tested on: SF-295 CNS
SF-539 CNS = tested on: SF-539 CNS
SK-MEL-2 melanoma = tested on: SK-MEL-2 melanoma
SK-MEL-28 melanoma = tested on: SK-MEL-28 melanoma
SK-MEL-5 melanoma = tested on: SK-MEL-5 melanoma
SK-OV-3 ovarian = tested on: SK-OV-3 ovarian
SN12C renal = tested on: SN12C renal
SNB-19 CNS = tested on: SNB-19 CNS
SNB-75 CNS = tested on: SNB-75 CNS
SR leukemia = tested on: SR leukemia
SW-620 colon = tested on: SW-620 colon
T-47D breast = tested on: T-47D breast
TK-10 renal = tested on: TK-10 renal
U251 CNS = tested on: U251 CNS
UACC-257 melanoma = tested on: UACC-257 melanoma
UACC-62 melanoma = tested on: UACC-62 melanoma
UO-31 renal = tested on: UO-31 renal

## O=C(CNc1nc(-c2ccccc2)cs1)Nc1ccc(Cl)cc1[N+](=O)[O-]
786-0 renal
  GI50: 3.75 µM
  TGI: 14.2 µM
A498 renal
  GI50: 7.9 µM
  TGI: 20.4 µM
A549 NSCLC
  GI50: 3.93 µM
  TGI: 14.5 µM
ACHN renal
  GI50: 2.77 µM
  TGI: 10.5 µM
BT-549 breast
  GI50: 2.84 µM
  TGI: 5.89 µM
CAKI-1 renal
  GI50: 1.85 µM
  TGI: 9.85 µM
CCRF-CEM leukemia
  GI50: 3.29 µM
  TGI: > 100 µM
COLO 205 colon
  GI50: 2.61 µM
  TGI: 5.91 µM
DU-145 prostate
  GI50: 4.78 µM
  TGI: 18.7 µM
EKVX NSCLC
  GI50: 1.82 µM
  TGI: 9.71 µM
HCC-2998 colon
  GI50: 2.71 µM
  TGI: 10.2 µM
HCT-116 colon
  GI50: 2.95 µM
  TGI: 10.2 µM
HCT-15 colon
  GI50: 1.98 µM
  TGI: 4.53 µM
HL-60(TB) leukemia
  GI50: 2.03 µM
  TGI: 6.56 µM
HOP-62 NSCLC
  GI50: 4.23 µM
  TGI: 17.3 µM
HOP-92 NSCLC
  GI50: 1.99 µM
  TGI: 8.19 µM
HS 578T breast
  GI50: 2.39 µM
  TGI: 9.58 µM
HT29 colon
  GI50: 3.79 µM
  TGI: 14.4 µM
IGROV1 ovarian
  GI50: 2.9 µM
  TGI: 12.1 µM
K-562 leukemia
  GI50: 2.49 µM
  TGI: > 100 µM
KM12 colon
  GI50: 3.36 µM
  TGI: 13 µM
LOX IMVI melanoma
  GI50: 1.32 µM
  TGI: 2.88 µM
M14 melanoma
  GI50: 3.4 µM
  TGI: 12.7 µM
MALME-3M melanoma
  GI50: 2.21 µM
  TGI: 5.51 µM
MCF7 breast
  GI50: 2.84 µM
  TGI: 10.3 µM
MDA-MB-231 breast
  GI50: 1.63 µM
  TGI: 3.54 µM
MDA-MB-435
  GI50: 3.25 µM
  TGI: 9.42 µM
MDA-MB-468 breast
  GI50: 2.02 µM
  TGI: 5.69 µM
MOLT-4 leukemia
  GI50: 2.49 µM
  TGI: 13.9 µM
NCI-H226 lung
  GI50: 2.64 µM
  TGI: 13 µM
NCI-H23 lung
  GI50: 3.08 µM
  TGI: 12.6 µM
NCI-H460 lung
  GI50: 4.18 µM
  TGI: 17.5 µM
NCI-H522 lung
  GI50: 1.8 µM
  TGI: 3.95 µM
NCI/ADR-RES ovarian
  GI50: 2.31 µM
  TGI: 6.53 µM
OVCAR-3 ovarian
  GI50: 2.36 µM
  TGI: 5.72 µM
OVCAR-4 ovarian
  GI50: 3.26 µM
  TGI: 13 µM
OVCAR-5 ovarian
  GI50: 2.49 µM
  TGI: 8.24 µM
OVCAR-8 ovarian
  GI50: 3.25 µM
  TGI: 13.1 µM
PC-3 prostate
  GI50: 2.78 µM
  TGI: 16.2 µM
RPMI-8226 leukemia
  GI50: 2.67 µM
  TGI: > 100 µM
RXF 393 renal
  GI50: 1.99 µM
  TGI: 6.5 µM
SF-268 CNS
  GI50: 2.1 µM
  TGI: 7.08 µM
SF-295 CNS
  GI50: 2.71 µM
  TGI: 11.1 µM
SF-539 CNS
  GI50: 1.84 µM
  TGI: 4.05 µM
SK-MEL-2 melanoma
  GI50: 3.04 µM
  TGI: 9.74 µM
SK-MEL-28 melanoma
  GI50: 2.9 µM
  TGI: 8.79 µM
SK-MEL-5 melanoma
  GI50: 1.93 µM
  TGI: 4.26 µM
SK-OV-3 ovarian
  GI50: 4.65 µM
  TGI: 19 µM
SN12C renal
  GI50: 2.81 µM
  TGI: 10.7 µM
SNB-19 CNS
  GI50: 3.78 µM
  TGI: 15 µM
SNB-75 CNS
  GI50: 1.24 µM
  TGI: 7.02 µM
SR leukemia
  GI50: 3.75 µM
  TGI: > 100 µM
SW-620 colon
  GI50: 4.1 µM
  TGI: 14.4 µM
T-47D breast
  GI50: 2.46 µM
  TGI: 8.61 µM
TK-10 renal
  GI50: 6.12 µM
  TGI: 17.9 µM
U251 CNS
  GI50: 2.06 µM
  TGI: 6.56 µM
UACC-257 melanoma
  GI50: 5.13 µM
  TGI: 17 µM
UACC-62 melanoma
  GI50: 1.33 µM
  TGI: 3.25 µM
UO-31 renal
  GI50: 1.62 µM
  TGI: 6.97 µM
